Data on 17 compounds can be found in ChEMBL document CHEMBL1134761, “A new concept for multidimensional selection of ligand conformations (MultiSelect) and multidimensional scoring (MultiScore) of protein-ligand binding affinities” (J Med Chem, 2001).

Molecules are shown by their SMILES.

Test [1] addresses 72 kDa type IV collagenase (Homo sapiens, UniProt P08253). The experiment in a line: Inhibitory constant against matrix metalloprotease-2.
Test [2] has as its target Stromelysin-1 (Homo sapiens, UniProt P08254). The test can be described thus: Inhibitory constant against matrix metalloprotease-3.
Test [3] addresses T1, Interstitial collagenase (Homo sapiens, UniProt P03956).
T1 sequence (P03956 whole entry): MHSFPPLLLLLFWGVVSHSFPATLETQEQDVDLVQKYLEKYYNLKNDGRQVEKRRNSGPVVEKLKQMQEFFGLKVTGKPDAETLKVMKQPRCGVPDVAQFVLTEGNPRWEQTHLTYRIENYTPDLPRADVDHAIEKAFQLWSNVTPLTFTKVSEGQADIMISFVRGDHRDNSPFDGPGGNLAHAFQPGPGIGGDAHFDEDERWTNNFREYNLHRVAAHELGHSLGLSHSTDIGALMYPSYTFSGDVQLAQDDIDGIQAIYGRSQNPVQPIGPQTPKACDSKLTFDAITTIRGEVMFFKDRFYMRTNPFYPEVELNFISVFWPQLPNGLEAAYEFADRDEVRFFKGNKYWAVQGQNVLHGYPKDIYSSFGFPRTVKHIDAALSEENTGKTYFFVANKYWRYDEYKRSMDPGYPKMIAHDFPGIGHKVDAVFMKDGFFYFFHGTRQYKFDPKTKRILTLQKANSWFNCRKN
The experiment in a line: Inhibitory constant against matrix metalloprotease-1.

72 kDa type IV collagenase, sequence (P08253 whole entry): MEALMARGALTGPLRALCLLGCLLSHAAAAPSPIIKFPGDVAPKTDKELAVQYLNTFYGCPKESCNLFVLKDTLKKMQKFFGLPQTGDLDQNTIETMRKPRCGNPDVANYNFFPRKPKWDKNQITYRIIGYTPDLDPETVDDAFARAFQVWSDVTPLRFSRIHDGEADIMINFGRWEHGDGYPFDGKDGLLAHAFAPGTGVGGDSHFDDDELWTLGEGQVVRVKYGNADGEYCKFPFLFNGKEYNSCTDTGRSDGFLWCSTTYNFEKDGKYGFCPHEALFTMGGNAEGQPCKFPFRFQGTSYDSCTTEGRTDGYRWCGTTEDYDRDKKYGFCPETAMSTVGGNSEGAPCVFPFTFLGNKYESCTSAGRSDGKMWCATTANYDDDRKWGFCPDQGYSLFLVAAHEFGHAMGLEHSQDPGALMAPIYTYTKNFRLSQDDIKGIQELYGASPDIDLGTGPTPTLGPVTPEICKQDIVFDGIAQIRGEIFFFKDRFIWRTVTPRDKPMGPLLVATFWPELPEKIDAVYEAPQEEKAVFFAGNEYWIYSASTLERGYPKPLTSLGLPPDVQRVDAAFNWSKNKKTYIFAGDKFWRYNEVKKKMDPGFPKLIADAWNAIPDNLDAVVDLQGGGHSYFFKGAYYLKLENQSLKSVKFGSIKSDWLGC
Stromelysin-1, sequence (P08254 whole entry): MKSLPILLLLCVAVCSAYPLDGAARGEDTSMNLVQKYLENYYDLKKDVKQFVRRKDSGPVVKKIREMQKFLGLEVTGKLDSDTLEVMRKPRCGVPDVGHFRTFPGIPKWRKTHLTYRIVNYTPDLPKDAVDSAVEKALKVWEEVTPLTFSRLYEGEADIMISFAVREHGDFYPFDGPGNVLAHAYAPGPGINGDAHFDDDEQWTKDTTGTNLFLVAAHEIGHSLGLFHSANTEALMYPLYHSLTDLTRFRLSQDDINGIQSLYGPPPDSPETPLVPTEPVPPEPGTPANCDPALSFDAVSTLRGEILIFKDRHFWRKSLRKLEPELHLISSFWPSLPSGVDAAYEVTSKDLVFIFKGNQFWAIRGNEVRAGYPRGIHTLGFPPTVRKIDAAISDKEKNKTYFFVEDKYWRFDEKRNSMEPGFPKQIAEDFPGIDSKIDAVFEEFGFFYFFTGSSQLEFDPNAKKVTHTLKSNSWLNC

Regarding `O=C(C[C@@H](CCCc1ccc(Cl)cc1)C(=O)N[C@@H](CC1CCCCC1)C(=O)NCCC(=O)NCCNS(=O)(=O)N1CCOCC1)NO`, the Ki in test [1] worked out at 0.01 nM; in test [2], 1.73 nM; in test [3], 302 nM.

For the compound `Cc1ccc(CCC[C@H](CC(=O)NO)C(=O)N[C@@H](CC2CCCCC2)C(=O)NCCC(=O)NCCN2CCOCC2)cc1`, the Ki in test [1] came out at 0.01 nM; in test [2], 6.26 nM; in test [3] it was 455 nM.

Turning to `O=C(C[C@@H](CCCc1ccccc1)C(=O)N[C@@H](CC1CCCCC1)C(=O)NCCC(=O)NCCc1ccc(S(=O)(=O)O)cc1)NO`, the Ki was 0.59 nM in test [1], 81.5 nM in test [2] and 942 nM in test [3].

Regarding `O=C(C[C@@H](CCCc1ccc(Cl)cc1)C(=O)N[C@@H](CC1CCCCC1)C(=O)NCCC(=O)NCCC(=O)N1CCOCC1)NO`, the inhibitory constant (Ki) in test [1] worked out at 0.02 nM; in test [2], 1.38 nM; in test [3], 319 nM.

As for `Cc1ccc(CCC[C@H](CC(=O)NO)C(=O)N[C@@H](CC2CCCCC2)C(=O)NCCC(=O)NCCNS(=O)(=O)N2CCOCC2)cc1`, the figures for the Ki in test [1], in test [2] and in test [3] were 0.03 nM, 2.75 nM and 385 nM, respectively.

Regarding `Cc1ccc(CCC[C@H](CC(=O)O)C(=O)N[C@@H](CC2CCCCC2)C(=O)NCCCCN2CCOCC2)cc1`, the figures for the Ki in test [2] and in test [3] were 1600 nM and 100000 nM, respectively.

Regarding `COC(=O)CCNC(=O)CCNC(=O)[C@H](CC1CCCCC1)NC(=O)[C@H](CCCc1ccc(Cl)cc1)CC(=O)NO`, the Ki in test [1] is 0.01 nM; in test [2], 0.96 nM; in test [3], 135 nM.

Consider `COc1ccc(CCC[C@H](CC(=O)O)C(=O)N[C@@H](CC2CCCCC2)C(=O)NCCc2ccc(S(N)(=O)=O)cc2)cc1`, for which the Ki in test [3] worked out at 100000 nM.

On to `NS(=O)(=O)c1ccc(CCNC(=O)CCNC(=O)[C@H](CC2CCCCC2)NC(=O)[C@H](CCCc2ccc(Cl)cc2)CC(=O)NO)cc1`, for which the Ki in test [1] worked out at 0.01 nM; in test [2], 6.35 nM; in test [3] it was 382 nM.

As to `Cc1ccc(CCC[C@H](CC(=O)NO)C(=O)N[C@@H](CC2CCCCC2)C(=O)NCCC(=O)NCCc2ccc(S(N)(=O)=O)cc2)cc1`, the inhibition constant (Ki) in test [1] came out at 0.02 nM; in test [2], 2.98 nM; in test [3] it was 329 nM.

As to `O=C(C[C@@H](CCCc1ccc(Cl)cc1)C(=O)N[C@@H](CC1CCCCC1)C(=O)NCCC(=O)NCCCCN1CCOCC1)NO`, the Ki in test [1] is 0.03 nM; in test [2], 2.39 nM; in test [3] it was 313 nM.

As to `O=C(O)CCNC(=O)CCNC(=O)[C@H](CC1CCCCC1)NC(=O)[C@H](CCCc1ccc(Cl)cc1)CC(=O)NO`, the inhibition constant (Ki) in test [1] was found to be 0.01 nM; in test [2], 0.8 nM; in test [3] it was 193 nM.

In test [3], `Cc1ccc(CCC[C@H](CP(=O)(O)O)C(=O)N[C@@H](CC2CCCCC2)C(=O)NCCc2ccccc2)cc1` displayed a Ki of 17000 nM.

Consider `Cc1ccc(CCC[C@H](CC(=O)NO)C(=O)N[C@@H](CC2CCCCC2)C(=O)NCCC(=O)NCCCCN(C)C)cc1`, for which the inhibition constant (Ki) in test [1] was found to be 0.03 nM; in test [2], 5.87 nM; in test [3], 313 nM.

As for `CN(C)CCCCNC(=O)CCNC(=O)[C@H](CC1CCCCC1)NC(=O)[C@H](CCCc1ccc(Cl)cc1)CC(=O)NO`, the Ki in test [1] is 0.05 nM; in test [2] it was 22.2 nM; in test [3] it was 1050 nM.

As for `Cc1ccc(CCC[C@H](CC(=O)NO)C(=O)N[C@@H](CC2CCCCC2)C(=O)NCCC(=O)NCCCCN2CCOCC2)cc1`, the Ki in test [1] was 0.02 nM; in test [2], 2.61 nM; in test [3], 642 nM.

With `NC(=O)CCCNC(=O)[C@H](CC1CCCCC1)NC(=O)[C@H](CCCc1ccccc1)CC(=O)O`, in test [2], the inhibition constant Ki stood at 1090 nM.
